Test results taken from ChEMBL document CHEMBL4052808, “Novel anti-prostate cancer scaffold identified by the combination of in silico and cell-based assays targeting the PI3K-AKT-mTOR pathway” (Bioorg Med Chem Lett, 2017).
The source made the active and inactive calls. No cut-off for these calls is given here.

Legend:
[1] = test system: DU-145; experiment: Cytotoxicity against human DU145 cells by MTT assay; type: functional, cell-based
[2] = test system: PC-3; experiment: Cytotoxicity against human PC3 cells by MTT assay; type: functional, cell-based
[3] = Selectivity index, ratio of cytotoxic concentration against mouse Balb/c 3T3 clone A31 cells to EC50 for human PC3 cells; type: functional
[4] = species: Homo sapiens; experiment: Inhibition of […] pathway in human PC3 cells assessed as phosphorylation of S6 at ser235 residues at 100 uM after 1 hr by alexa fluor 488 probe based flow cytometric analysis (reference value: 48.58%); type: cell-based
[5] = Cytotoxicity against mouse Balb/c 3T3 clone A31 cells assessed as cell viability at 100 uM by MTT assay relative to control; type: cell-based; conditions: read-out: Activity
[6] = species: Homo sapiens; experiment: Inhibition of […] pathway in human PC3 cells assessed as phosphorylation of AKT at ser473 residues at 100 uM after 1 hr by PerCP probe based flow cytometric analysis (reference value: 43.92%); type: cell-based

Compound	EC50 [1] [µM]	EC50 [2] [µM]	Selectivity Index [3]	inhibition [4] [%]	Activity [1]	viability at 100 µM [5] [%]	inhibition [6] [%]
COCC[n+]1c2c(n(Cc3cnccn3)c1C)C(=O)c1ccccc1C2=O [SEPANTRONIUM BROMIDE]	0.0138	0.092	–	–	–	–	–
Nc1ccc(C(=O)N2CCC(Cc3ccc(F)cc3)CC2)cn1	–	75	>1.33	14	inactive	68.1	39.4
Cc1ccccc1SC1CCN(C(=O)c2ccc(N)nc2)CC1	–	60.7	>1.65	15.5	inactive	95.4	34.8
CO[C@H]1C[C@@H]2CC[C@@H](C)[C@@](O)(O2)C(=O)C(=O)N2CCCC[C@H]2C(=O)O[C@H]([C@H](C)C[C@@H]2CC[C@@H](O)[C@H](OC)C2)CC(=O)[C@H](C)/C=C(\C)[C@@H](O)[C@@H](OC)C(=O)[C@H](C)C[C@H](C)/C=C/C=C/C=C/1C [SIROLIMUS]	–	43.1	>2.32	7.24	–	58.3	28.9
